Source: patent publication US9624477B2 (priority 2004, dated 2017)

Test system: Pi-omega3Des
Format: cell-based, Phytophthora infestans
Conditions: FIG. 9; for desaturation of phospholipid-bound fatty acid (sn1 or sn2 position): fatty acids bound in phospholipids; for phospholipid converted by ω-3-desaturase: desaturation products also found in the neutral lipids

Molecule	desaturation of phospholipid-bound fatty acid (sn1 or sn2 position)	phospholipid converted by ω-3-desaturase
CCCCC/C=C\C/C=C\C/C=C\CCCCCCC(=O)O [C20:3 ω-6-fatty acid, dihomo-γ-linolenic acid, reference compound]	does not differentiate between fatty acids bound at the sn1 or sn2 position	
CCCCC/C=C\C/C=C\C/C=C\C/C=C\CCCC(=O)O [arachidonic acid, reference compound]	desaturation of phospholipid-bound arachidonic acid to EPA	
phosphatidylcholine		converts
phosphatidylethanolamine		converts
phosphatidylinositol		converts
